{"source": "patent US20230248626A1", "about": "“Compositions Comprising (Bio)-Alkanediols” (Symrise AG, priority 0001, published 2023)", "format_in_all_cases": "cell-based", "key": {"[1]": {"system": "Aspergillus brasiliensis", "assay": "MIC and Kull synergy index of 1,2-/2,3-alkanediol mixtures", "conditions": "single 1,2-alkanediol, read-out: MIC Component A"}, "[2]": {"system": "Aspergillus brasiliensis (AB)", "assay": "Preservation efficacy test (PET), European Pharmacopoeia 5.1.3", "in_short": "(§1)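 Preparations challenged with prescribed inoculums per European Pharmacopoeia 5.1.3, counting microorganisms after the prescribed time. Adequate preservation means a significant fall or no increase in counts.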"}, "[3]": {"system": "Escherichia coli (EC)", "assay": "Preservation efficacy test (PET), European Pharmacopoeia 5.1.3", "in_short": "as §1"}, "[4]": {"system": "Candida albicans (CA)", "assay": "Preservation efficacy test (PET), European Pharmacopoeia 5.1.3", "in_short": "as §1"}, "[5]": {"system": "Staphylococcus aureus (SA)", "assay": "Preservation efficacy test (PET), European Pharmacopoeia 5.1.3", "in_short": "as §1"}, "[6]": {"system": "Pseudomonas aeruginosa (PA)", "assay": "Preservation efficacy test (PET), European Pharmacopoeia 5.1.3", "in_short": "as §1"}, "[7]": {"system": "Staphylococcus aureus", "assay": "MIC test (growth inhibition, 96 well plates, OD)", "conditions": "read-out: Minimum Inhibitory Concentration (MIC)"}, "[8]": {"system": "Propionibacterium acnes", "assay": "MIC test (growth inhibition, 96 well plates, OD)", "conditions": "Cutibacterium acnes; read-out: Minimum Inhibitory Concentration (MIC)"}, "[9]": {"system": "Staphylococcus hominis", "assay": "MIC test (growth inhibition, 96 well plates, OD)", "conditions": "read-out: Minimum Inhibitory Concentration (MIC)"}, "[10]": {"system": "Candida albicans", "assay": "MIC test (growth inhibition, 96 well plates, OD)", "conditions": "read-out: Minimum Inhibitory Concentration (MIC)"}, "[11]": {"system": "Corynebacterium jeikeium", "assay": "MIC test (growth inhibition, 96 well plates, OD)", "conditions": "read-out: Minimum Inhibitory Concentration (MIC)"}, "[12]": {"system": "Escherichia coli", "assay": "MIC test (growth inhibition, 96 well plates, OD)", "conditions": "read-out: Minimum Inhibitory Concentration (MIC)"}}}
{"molecule": "CCCCCC(O)CO", "note": "(stereo not shown) [1,2-heptanediol]", "values": [{"measurement": "MIC", "setting": "[1]", "result": 5000, "unit": "µg/mL"}, {"measurement": "number of microorganisms after 2 days", "setting": "[2]; 0.1% in shampoo", "result": "240,000"}, {"measurement": "number of microorganisms after 7 days", "setting": "[2]; 0.1% in shampoo", "result": "220,000"}, {"measurement": "number of microorganisms after 14 days", "setting": "[2]; 0.1% in shampoo", "result": "150,000"}, {"measurement": "number of microorganisms after 28 days", "setting": "[2]; 0.1% in shampoo", "result": "19,000"}, {"measurement": "number of microorganisms after 2 days", "setting": "[2]; 0.2% in o/w emulsion", "result": "2,200,000"}, {"measurement": "number of microorganisms after 7 days", "setting": "[2]; 0.2% in o/w emulsion", "result": "2,000,000"}, {"measurement": "number of microorganisms after 14 days", "setting": "[2]; 0.2% in o/w emulsion", "result": "2,500,000"}, {"measurement": "number of microorganisms after 28 days", "setting": "[2]; 0.2% in o/w emulsion", "result": "2,100,000"}, {"measurement": "number of microorganisms after 2 days", "setting": "[2]; 0.4% in o/w emulsion", "result": "1,000,000"}, {"measurement": "number of microorganisms after 7 days", "setting": "[2]; 0.4% in o/w emulsion", "result": "180,000"}, {"measurement": "number of microorganisms after 14 days", "setting": "[2]; 0.4% in o/w emulsion", "result": "150,000"}, {"measurement": "number of microorganisms after 28 days", "setting": "[2]; 0.4% in o/w emulsion", "result": 1}, {"measurement": "number of microorganisms after 2 days", "setting": "[3]; 0.1% in shampoo", "result": "2,100,000"}, {"measurement": "number of microorganisms after 7 days", "setting": "[3]; 0.1% in shampoo", "result": "1,400,000"}, {"measurement": "number of microorganisms after 14 days", "setting": "[3]; 0.1% in shampoo", "result": "200,000"}, {"measurement": "number of microorganisms after 28 days", "setting": "[3]; 0.1% in shampoo", "result": 1}, {"measurement": "number of microorganisms after 2 days", "setting": "[3]; 0.2% in o/w emulsion", "result": "38,000"}, {"measurement": "number of microorganisms after 7 days", "setting": "[3]; 0.2% in o/w emulsion", "result": 73}, {"measurement": "number of microorganisms after 14 days", "setting": "[3]; 0.2% in o/w emulsion", "result": 1}, {"measurement": "number of microorganisms after 28 days", "setting": "[3]; 0.2% in o/w emulsion", "result": 1}, {"measurement": "number of microorganisms after 2 days", "setting": "[3]; 0.4% in o/w emulsion", "result": "23,000"}, {"measurement": "number of microorganisms after 7 days", "setting": "[3]; 0.4% in o/w emulsion", "result": "4,100"}, {"measurement": "number of microorganisms after 14 days", "setting": "[3]; 0.4% in o/w emulsion", "result": 1}, {"measurement": "number of microorganisms after 28 days", "setting": "[3]; 0.4% in o/w emulsion", "result": 1}, {"measurement": "number of microorganisms after 2 days", "setting": "[4]; 0.1% in shampoo", "result": "220,000"}, {"measurement": "number of microorganisms after 7 days", "setting": "[4]; 0.1% in shampoo", "result": "62,000"}, {"measurement": "number of microorganisms after 14 days", "setting": "[4]; 0.1% in shampoo", "result": "8,100"}, {"measurement": "number of microorganisms after 28 days", "setting": "[4]; 0.1% in shampoo", "result": 1}, {"measurement": "number of microorganisms after 2 days", "setting": "[4]; 0.2% in o/w emulsion", "result": "1,300,000"}, {"measurement": "number of microorganisms after 7 days", "setting": "[4]; 0.2% in o/w emulsion", "result": "1,600,000"}, {"measurement": "number of microorganisms after 14 days", "setting": "[4]; 0.2% in o/w emulsion", "result": "1,200,000"}, {"measurement": "number of microorganisms after 28 days", "setting": "[4]; 0.2% in o/w emulsion", "result": "620,000"}, {"measurement": "number of microorganisms after 2 days", "setting": "[4]; 0.4% in o/w emulsion", "result": "71,000"}, {"measurement": "number of microorganisms after 7 days", "setting": "[4]; 0.4% in o/w emulsion", "result": "2,800"}, {"measurement": "number of microorganisms after 14 days", "setting": "[4]; 0.4% in o/w emulsion", "result": 1}, {"measurement": "number of microorganisms after 28 days", "setting": "[4]; 0.4% in o/w emulsion", "result": 1}, {"measurement": "number of microorganisms after 2 days", "setting": "[5]; 0.1% in shampoo", "result": 10}, {"measurement": "number of microorganisms after 7 days", "setting": "[5]; 0.1% in shampoo", "result": 10}, {"measurement": "number of microorganisms after 14 days", "setting": "[5]; 0.1% in shampoo", "result": 1}, {"measurement": "number of microorganisms after 28 days", "setting": "[5]; 0.1% in shampoo", "result": 1}, {"measurement": "number of microorganisms after 2 days", "setting": "[5]; 0.2% in o/w emulsion", "result": "95,000"}, {"measurement": "number of microorganisms after 7 days", "setting": "[5]; 0.2% in o/w emulsion", "result": 1}, {"measurement": "number of microorganisms after 14 days", "setting": "[5]; 0.2% in o/w emulsion", "result": 1}, {"measurement": "number of microorganisms after 28 days", "setting": "[5]; 0.2% in o/w emulsion", "result": 1}, {"measurement": "number of microorganisms after 2 days", "setting": "[5]; 0.4% in o/w emulsion", "result": "15,000"}, {"measurement": "number of microorganisms after 7 days", "setting": "[5]; 0.4% in o/w emulsion", "result": "2,600"}, {"measurement": "number of microorganisms after 14 days", "setting": "[5]; 0.4% in o/w emulsion", "result": 1}, {"measurement": "number of microorganisms after 28 days", "setting": "[5]; 0.4% in o/w emulsion", "result": 1}, {"measurement": "number of microorganisms after 2 days", "setting": "[6]; 0.1% in shampoo", "result": "2,500"}, {"measurement": "number of microorganisms after 7 days", "setting": "[6]; 0.1% in shampoo", "result": 10}, {"measurement": "number of microorganisms after 14 days", "setting": "[6]; 0.1% in shampoo", "result": 1}, {"measurement": "number of microorganisms after 28 days", "setting": "[6]; 0.1% in shampoo", "result": 1}, {"measurement": "number of microorganisms after 2 days", "setting": "[6]; 0.2% in o/w emulsion", "result": 1}, {"measurement": "number of microorganisms after 7 days", "setting": "[6]; 0.2% in o/w emulsion", "result": 1}, {"measurement": "number of microorganisms after 14 days", "setting": "[6]; 0.2% in o/w emulsion", "result": 1}, {"measurement": "number of microorganisms after 28 days", "setting": "[6]; 0.2% in o/w emulsion", "result": 1}, {"measurement": "number of microorganisms after 2 days", "setting": "[6]; 0.4% in o/w emulsion", "result": 1}, {"measurement": "number of microorganisms after 7 days", "setting": "[6]; 0.4% in o/w emulsion", "result": 1}, {"measurement": "number of microorganisms after 14 days", "setting": "[6]; 0.4% in o/w emulsion", "result": 1}, {"measurement": "number of microorganisms after 28 days", "setting": "[6]; 0.4% in o/w emulsion", "result": 1}, {"measurement": "MIC", "setting": "[7]", "result": 10000, "unit": "µg/mL"}, {"measurement": "MIC", "setting": "[8]", "result": "> 5000", "unit": "µg/mL"}, {"measurement": "MIC", "setting": "[9]", "result": 10000, "unit": "µg/mL"}, {"measurement": "MIC", "setting": "[10]", "result": 5000, "unit": "µg/mL"}, {"measurement": "MIC", "setting": "[11]", "result": 7500, "unit": "µg/mL"}, {"measurement": "MIC", "setting": "[12]", "result": 5000, "unit": "µg/mL"}]}
